Converted amounts (≈) assume the structure as drawn.
Columns and labels:
Test in all cases: Agar dilution MIC
[1] = tested on: Actinomyces odontolyticus; type: cell-based; settings: Schaalia odontolytica, 10 isolates
Actinomyces israelii = type: cell-based; settings: 6 isolates
[2] = tested on: Anaerobiospirillum thomasii; type: cell-based; settings: 13 isolates
[3] = tested on: Anaerobiospirillum succiniciproducens; type: cell-based; settings: 3 isolates
Bacteroides gracilis = type: cell-based, Bacteroides gracilis (Campylobacter gracilis); settings: Campylobacter gracilis, 11 isolates
Bacteroides tectum = type: cell-based; settings: Bacteroides pyogenes, 22 isolates
Bacteroides ureolyticus = type: cell-based; settings: 17 isolates
[4] = tested on: Clostridium clostridioforme; type: cell-based; settings: 11 isolates
Clostridium dfficile = type: cell-based, Clostridium difficile; settings: 14 isolates
Clostridium inocuum = type: cell-based, Clostridium innocuum; settings: 11 isolates
Clostridium ramosum = type: cell-based; settings: 10 isolates
[5] = tested on: Fusobacterium spp group 1; type: cell-based; settings: Fusobacterium, 19 isolates
[6] = tested on: Fusobacterium spp. group 2; type: cell-based, Fusobacterium mortiferum, necrogenes, ulcerans; settings: Fusobacterium, 12 isolates
Fusobacterium russii = type: cell-based; settings: Fusobacterium russii; read-out: Minimal Inhibitory Concentration 90% (MIC90)
Fusobacterium varium = type: cell-based; settings: Fusobacterium varium, 17 isolates
[7] = tested on: Peptostreptococcus asaccharolyticus; type: cell-based; settings: Peptoniphilus asaccharolyticus, 11 isolates
[8] = tested on: Peptostreptococcus magnus; type: cell-based; settings: 13 isolates
[9] = tested on: Peptostreptococcus micros; type: cell-based; settings: 12 isolates
[10] = tested on: Peptostreptococcus prevotii; type: cell-based; settings: Anaerococcus prevotii, read-out: Minimal Inhibitory Concentration 50% (MIC50); 9 isolates
[11] = tested on: Porphyromonas asaccharolyticus; type: cell-based, Porphyromonas asaccharolytica; settings: Porphyromonas, 11 isolates
Porphyromonas canoris = type: cell-based; settings: Porphyromonas canoris, 10 isolates
Porphyromonas gingivalis = type: cell-based; settings: Porphyromonas gingivalis, 13 isolates
Porphyromonas macaccae = type: cell-based; settings: Porphyromonas, read-out: Minimal Inhibitory Concentration 50% (MIC50); 13 isolates
Porphyromonas spp. = type: cell-based, Porphyromonas cangingivalis, cansulci, circumdentaria, levii; settings: Porphyromonas, read-out: Minimal Inhibitory Concentration 50% (MIC50); 11 isolates
Prevotella bivia = type: cell-based; settings: 21 isolates
[12] = tested on: Prevotella buccae-oris group; type: cell-based; settings: 22 isolates
[13] = tested on: Prevotella heparinolytica; type: cell-based; settings: 16 isolates
Prevotella intermedia = type: cell-based; settings: 11 isolates
[14] = tested on: Prevotella melaninogenica; type: cell-based; settings: Prevotella melaninogenica, 12 isolates
[15] = tested on: Prevotella denticola/loeschii group; type: cell-based; settings: 6 isolates
Veillonella spp. = type: cell-based; settings: 24 isolates
[16] = read-out: Minimal Inhibitory Concentration 90% (MIC90)
[17] = read-out: Minimal Inhibitory Concentration 50% (MIC50)
[18] = Clostridium, read-out: Minimal Inhibitory Concentration 90% (MIC90)

Cc1ncc([N+](=O)[O-])n1CCO [Metronidazole]
MIC90 [1, 16]: 32 µg/mL (≈ 187 µM)
MIC50 [1, 17]: 16 µg/mL (≈ 93.5 µM)
Minimal Inhibitory Concentration Range (Actinomyces israelii): 1 to 32 µg/mL
MIC50 (Actinomyces israelii; Actinomyces israelii, read-out: Minimal Inhibitory Concentration 50% (MIC50)): 4 µg/mL (≈ 23.4 µM)
Minimal Inhibitory Concentration Range [2]: 1 to 4 µg/mL
MIC50 ([2]; Anaerobiospirillum thomasii, read-out: Minimal Inhibitory Concentration 50% (MIC50)): 2 µg/mL (≈ 11.7 µM)
MIC90 ([2]; Anaerobiospirillum thomasii, read-out: Minimal Inhibitory Concentration 90% (MIC90)): 4 µg/mL (≈ 23.4 µM)
Minimal Inhibitory Concentration Range [3]: 4 to 8 µg/mL
MIC50 ([3]; Anaerobiospirillum succiniciproducens, read-out: Minimal Inhibitory Concentration 50% (MIC50)): 8 µg/mL (≈ 46.7 µM)
MIC90 (Bacteroides gracilis; [16]): > 32 µg/mL
MIC50 (Bacteroides gracilis; [17]): 0.5 µg/mL (≈ 2.92 µM)
MIC90 (Bacteroides tectum; [16]): 0.5 µg/mL (≈ 2.92 µM)
MIC50 (Bacteroides tectum; [17]): 0.5 µg/mL (≈ 2.92 µM)
Minimal Inhibitory Concentration Range (Bacteroides ureolyticus): 0.06 to 2 µg/mL
MIC90 (Bacteroides ureolyticus; Campylobacter ureolyticus, read-out: Minimal Inhibitory Concentration 90% (MIC90)): 1 µg/mL (≈ 5.84 µM)
MIC50 (Bacteroides ureolyticus; Campylobacter ureolyticus, read-out: Minimal Inhibitory Concentration 50% (MIC50)): 0.25 µg/mL (≈ 1.46 µM)
Minimal Inhibitory Concentration Range [4]: 0.03 to 1 µg/mL
MIC90 [4, 18]: 0.5 µg/mL (≈ 2.92 µM)
Minimal Inhibitory Concentration Range (Clostridium dfficile): 0.25 to 1 µg/mL
Minimal Inhibitory Concentration Range (Clostridium inocuum): 0.5 to 2 µg/mL
MIC90 (Clostridium inocuum; [18]): 1 µg/mL (≈ 5.84 µM)
MIC50 (Clostridium inocuum; Clostridium, read-out: Minimal Inhibitory Concentration 50% (MIC50)): 0.5 µg/mL (≈ 2.92 µM)
Minimal Inhibitory Concentration Range (Clostridium ramosum): 1 µg/mL
MIC50 (Clostridium ramosum; Thomasclavelia ramosa, read-out: Minimal Inhibitory Concentration 50% (MIC50)): 1 µg/mL (≈ 5.84 µM)
MIC90 (Clostridium ramosum; Thomasclavelia ramosa, read-out: Minimal Inhibitory Concentration 90% (MIC90)): 1 µg/mL (≈ 5.84 µM)
MIC50 ([5]; GROUP1, read-out: Minimal Inhibitory Concentration 50% (MIC50)): 0.25 µg/mL (≈ 1.46 µM)
MIC90 ([5]; GROUP1, read-out: Minimal Inhibitory Concentration 90% (MIC90)): 4 µg/mL (≈ 23.4 µM)
MIC50 [6, 17]: 0.5 µg/mL (≈ 2.92 µM)
MIC90 [6, 16]: 1 µg/mL (≈ 5.84 µM)
MIC90 (Fusobacterium russii): 0.25 µg/mL (≈ 1.46 µM)
MIC50 (Fusobacterium varium; [17]): 1 µg/mL (≈ 5.84 µM)
MIC90 (Fusobacterium varium; [16]): 2 µg/mL (≈ 11.7 µM)
MIC50 [7, 17]: 0.5 µg/mL (≈ 2.92 µM)
MIC90 [7, 16]: 1 µg/mL (≈ 5.84 µM)
Minimal Inhibitory Concentration Range [8]: 0.25 to 2 µg/mL
MIC50 ([8]; Finegoldia magna, read-out: Minimal Inhibitory Concentration 50% (MIC50)): 0.5 µg/mL (≈ 2.92 µM)
MIC90 ([8]; Finegoldia magna, read-out: Minimal Inhibitory Concentration 90% (MIC90)): 0.5 µg/mL (≈ 2.92 µM)
Minimal Inhibitory Concentration Range [9]: 0.03 to 0.25 µg/mL
MIC50 ([9]; Parvimonas micra, read-out: Minimal Inhibitory Concentration 50% (MIC50)): 0.25 µg/mL (≈ 1.46 µM)
MIC90 ([9]; Parvimonas micra, read-out: Minimal Inhibitory Concentration 90% (MIC90)): 0.25 µg/mL (≈ 1.46 µM)
MIC50 [10]: 0.5 µg/mL (≈ 2.92 µM)
MIC50 [11, 17]: ≤ 0.015 µg/mL
MIC90 [11, 16]: ≤ 0.015 µg/mL
MIC50 (Porphyromonas canoris; [17]): 0.25 µg/mL (≈ 1.46 µM)
MIC90 (Porphyromonas canoris; [16]): 0.25 µg/mL (≈ 1.46 µM)
MIC50 (Porphyromonas gingivalis; [17]): ≤ 0.015 µg/mL
MIC90 (Porphyromonas gingivalis; [16]): 0.03 µg/mL (≈ 0.175 µM)
MIC50 (Porphyromonas macaccae): 0.06 µg/mL (≈ 0.351 µM)
MIC50 (Porphyromonas spp.): 0.03 µg/mL (≈ 0.175 µM)
Minimal Inhibitory Concentration Range (Prevotella bivia): 0.5 to 4 µg/mL
MIC90 (Prevotella bivia; Prevotella bivia, read-out: Minimal Inhibitory Concentration 90% (MIC90)): 4 µg/mL (≈ 23.4 µM)
MIC50 (Prevotella bivia; Prevotella bivia, read-out: Minimal Inhibitory Concentration 50% (MIC50)): 2 µg/mL (≈ 11.7 µM)
Minimal Inhibitory Concentration Range [12]: 0.5 to 4 µg/mL
MIC90 ([12]; Prevotella, read-out: Minimal Inhibitory Concentration 90% (MIC90)): 2 µg/mL (≈ 11.7 µM)
MIC50 ([12]; Prevotella, read-out: Minimal Inhibitory Concentration 50% (MIC50)): 1 µg/mL (≈ 5.84 µM)
Minimal Inhibitory Concentration Range [13]: 0.06 to 1 µg/mL
MIC90 ([13]; Prevotella heparinolytica, read-out: Minimal Inhibitory Concentration 90% (MIC90)): 1 µg/mL (≈ 5.84 µM)
MIC50 ([13]; Prevotella heparinolytica, read-out: Minimal Inhibitory Concentration 50% (MIC50)): 0.5 µg/mL (≈ 2.92 µM)
Minimal Inhibitory Concentration Range (Prevotella intermedia): 0.03 to 1 µg/mL
MIC90 (Prevotella intermedia; Prevotella intermedia, read-out: Minimal Inhibitory Concentration 90% (MIC90)): 1 µg/mL (≈ 5.84 µM)
MIC50 (Prevotella intermedia; Prevotella intermedia, read-out: Minimal Inhibitory Concentration 50% (MIC50)): 0.5 µg/mL (≈ 2.92 µM)
MIC90 [14, 16]: 1 µg/mL (≈ 5.84 µM)
MIC50 [14, 17]: 0.5 µg/mL (≈ 2.92 µM)
Minimal Inhibitory Concentration Range [15]: 0.5 to 1 µg/mL
MIC50 ([15]; Prevotella denticola, read-out: Minimal Inhibitory Concentration 50% (MIC50)): 1 µg/mL (≈ 5.84 µM)
Minimal Inhibitory Concentration Range (Veillonella spp.): 0.25 to 2 µg/mL
MIC90 (Veillonella spp.; Veillonella, read-out: Minimal Inhibitory Concentration 90% (MIC90)): 2 µg/mL (≈ 11.7 µM)
MIC50 (Veillonella spp.; Veillonella, read-out: Minimal Inhibitory Concentration 50% (MIC50)): 1 µg/mL (≈ 5.84 µM)

— patent US6455540B1, “Methods of use of quinolone compounds against anaerobic pathogenic bacteria” (priority 1999, dated 2002)
